{
  "source": "patent US9265248B2",
  "about": "“Water soluble antimicrobial composition” (Medivators Inc., priority 2011, dated 2016)",
  "tested_on": "bacteria",
  "test": "Residual test on coated carriers, 10 minute contact time (organism not named)",
  "assay_type": "cell-based",
  "conditions": "average over all inocula of the sample",
  "description": "Solutions of examples 12-01 to 12-05 were used to coat polycarbonate or glass carriers. Once dried, bacteria were inoculated on top of the coating and a log reduction of bacteria was obtained after a certain contact time. CFU=Colony Forming Units, TNTC=Too numerous to count, BCP=benzalkonium chloride powder, ThP=thymol powder",
  "data": [
    {"substance": "alkyldimethylbenzylammonium chloride [0.3 wt % benzalkonium chloride control]", "values": [
      {"measurement": "Average Log 10 Reduction", "value": 0.5}
    ]}
  ]
}
